# Ends that are not written are not given here.
# What was measured:
# mice = test: In vivo TNF toxicity, blood glucose and appearance; details: 10 μg of Peptide 2, 200 μg recombinant human TNF
# Protocol: Appearance parameters which were evaluated included ruffling of fur, touch sensitivity, presence of eye exudate, light sensitivity and diarrhoea.
# Nonfasting blood glucose levels were determined on a Beckman Glucose Analyzer 2 (Beckman Instruments) or on a Exectech blood glucose sensor (Clifford Hallam Pty. Ltd).
# [1] = test system: D-galactosamine sensitized mice; test: TNF toxicity in D-galactosamine sensitized mice; format: in vivo; details: 16 mg D-galactosamine and 2 μg human recombinant TNF i.p., peptide s.c.; survival up to 48 hours
# Protocol: The mice were then injected subcutaneously with either test peptide, phosphate buffered saline or neutralizing anti-TN? monoclonal antibody 47.
# [2] = test system: Meth A ascites tumour-bearing mice; test: LPS lethality in Meth A ascites tumour-bearing mice; format: in vivo; details: 500 μg E.coli LPS, peptide s.c.; survival up to 64 hours; * heightened activity
# Protocol: In LPS experiments polymyxin B, an LPS inhibitor, replaced MAb 47 as a positive control. The number of animals surviving was assessed at intervals up to 64 hours after LPS challenge.
# [3] = test system: bovine aortic endothelial cells
# Protocol: Endothelial cell procoagulant activity (PCA) induction by TNFα was determined using bovine aortic endothelial cells (BAE) according to the procedure of Bevilacqua et al., 1986 PNAS 83, 4522 with the following modifications: BAE cells were propagated in McCoys 5A medium supplemented with 10% FCS, penicillin, streptomycin and L-gutamine in standard tissue culture flasks and 24-well dishes. TNFα treatment of culture (3 μg/ml) was for 4 hours at 37° C. in the presence of growth medium after which the cells were washed and scrape-harvested before being frozen, thawed and sonicated. Total cellular PCA was determined in a standard one-stage clotting assay using normal donor platelet poor plasma to which 100 μl of CaCl2 and 100 μl of cell lystate was added. Statistical significance was determined by unpaired t-test.
# Protocol for human neutrophils: In these experiments, neutrophils were prepared from blood of healthy volunteers by the rapid single step method (Kowanko and Ferrante 1987 Immunol 62, 149). To 100 μl of 5×10^6 neutrophils/ml was added 100 μl of either 0, 10, 100 μg of peptide/ml and 800 μl of lucigenin (100 μg). The tubes were immediately placed into a light proof chamber (with a 37° C. water jacket incubator) of a luminometer (model 1250; LKB Instruments, Wallac, Turku, Finaldn). The resultant light output (in millivolts was recorded). The results are recorded as the maximal rate of chemiluminescence production.
Substance,TNF toxicity as indicated by blood glucose changes (mice),IN VIVO TNF TOXICITY D-GAL [1],IN VIVO LPS TOXICITY METH A [2],induction of procoagulant activity [3],activation of the respiratory burst (human neutrophils)
ARG THR PRO SER ASP LYS VAL PRO ALA HIS VAL VAL ALA (RTPSDKVPAHVVA; printed: ARG THR PRO SER ASP LYS VAL PRO ALA HIS VAL VAL ALA) [Peptide 2],abrogated TNF toxicity,+ (each group contains 10 animals: scored positive if 6 or more survive),,,
"Ac-PSDKPVA-NH2 [Peptide 29, Ac PRO SER ASP LYS PRO VAL ALA NH2]",,,+ (10 animals per group scored positive if 7 or more survive),,
"Ac-RTPSDKPVAHV-NH2 [Peptide 30, Ac ARG THR PRO SER ASP LYS PRO VAL ALA HIS VAL NH2]",,+ (each group contains 10 animals: scored positive if 6 or more survive),+ (10 animals per group scored positive if 7 or more survive),,
"VRSSSRTPSDKPVAHVVA [Peptide 1, VAL ARG SER SER SER ARG THR PRO SER ASP LYS PRO VAL ALA HIS VAL VAL ALA]",,,,failed to either activate the respiratory burst of human neutrophils (Table 5) or to induce procoagulant activity,failed to either activate the respiratory burst
